The text below walks through data of patent publication US9737525B2, “Small molecule activators of NRF2 pathway” (The General Hospital Corporation, priority 2013, dated 2017).

Molecules are shown by their SMILES. Where a name gives a salt, the structure may show the parent alone.

For assay [1], the target named is human recombinant SIRT2 deacetylase (Homo sapiens (Human), UniProt Q8IXJ6). In words: Sirtuin biochemical deacetylation assay, SIRT2. As for the experimental part:
Modulation of sirtuin activity by compounds was assessed using the Flour de Lys fluorescent biochemical assay in a 96-well format as described (Outeiro et al., 2007). The deacetylation reaction was performed at 37° C. for an hour in the presence of human recombinant enzymes: SIRT1 (BioMol-SE-239) 1 unit/per reaction, SIRT2 (BioMol-SE-251) 5 units/per reaction, or SIRT3 (BioMol-SE-270) 5 units/per reaction, compound of interest, standard buffer, 50 μM substrate, and 500 μM NAD^+ according to the manufacturer's protocol. […]

Assay [2] deals with NQO1. In words: Quantitative NQO1 inducer bioassay in Hepa1c1c7 cells. Format: cell-based, murine. The following applies: for EC (2-fold NQO1 activity): Mus musculus, Hepa-1c1c7, Table 3, Concentration which Doubles the specific activity of NQO1, read-out: NQD1 CD; for EC (2-fold NQO1 activity) / CD value (Concentration which Doubles the specific activity of NQO1): 48 hr exposure; for Effect of GSH pre-incubation on NQO1 inducer potency: 1 mM GSH at 37° C. for 30 min before cell treatment; for CD value (Concentration which Doubles the specific activity of NQO1): Hepa1c1c7 cells.
Method: Cells grown in 96-well plates were exposed to serial dilutions of each compound for 48 hr, and the NQO1 enzyme activity was determined in cell lysates. Results are shown as average values of 8 replicate wells. The standard deviation in each case was less than 5%.
Next, using a quantitative NQO1 inducer bioassay in murine Hepa1c1c7 cells and the CD value (Concentration which Doubles the specific activity of NQO1) as a measure of potency (see Table 2), the activities of the MIND4 analogs were tested and ranked.
Inducer potency was quantified by use of the NQO1 bioassay in Hepa1c1c7 cells as described [Prochaska, 1988]. To examine the effect of GSH on inducer potency, compounds were incubated in cell culture medium containing 1 mM GSH at 37° C. for 30 min before cell treatment.

The subject of assay [3] is NRF2-responsive proteins NQO1 and GCLM. In words: Induction of NQO1 and GCLM proteins in differentiated ST14A cells (immunoblotting). Format: cell-based, rat. The note with it: differentiated HD mutant and wild type ST14A cells, 24 hours. On the procedure:
(§1) To assess protein levels, cell extracts were prepared from cells washed with PBS and lysed with buffer containing 2% SDS, Complete EDTA-free Protease Inhibitor Cocktail (Roche) and 1 mM phenylmethylsulfonyl fluoride. To prepare brain extracts for analysis, frozen mouse cortical tissues were homogenized in PBS containing protease inhibitors with an Kontes Pellet Pestle (Kimble/Kontes). They were later sonicated and lysed overnight at 4° C. in 2× volume of lysis buffer containing 2% SDS and protease inhibitors. Protein concentrations in ST14A cell extracts and homogenized cortical tissues were evaluated using a BCA analysis kit and normalized. Samples were prepared in a SDS buffer containing DTT and separated on bis-acrylamide protein gels via electrophoresis and transferred onto a 0.2 μm PVDF membrane). Membranes were probed for NQO1 (Sigma N5288, 1:1,000), GCLM, (Abcam ab126704, 1:800), SIRT2 (Sigma S8447, 1:2,500), histone H3 (Cell Signaling 4499, 1:2,000), acetylated H3 (K56) (Millipore 04-1135, 1:500), TNFα (Abcam ab1793, 1:1,500), GADPH (Millipore MAB374, 1:10,000), actin (Sigma A2066, 1:1250), α-tubulin (Sigma T6074, 1:20,000), and acetylated α-tubulin (Sigma T6793, 1:2,500) overnight in 5% milk in PBST at 4° C. on a rocker. Membranes were thrice washed in PBST for 15 min on a shaker and incubated in either an anti-rabbit-HRP (Bio-Rad 170-5046, 1:10,000) or anti-mouse-HRP (Sigma A3682, 1:4,000) secondary solution as appropriate in 3% milk in PBST for 1 hr at room temperature on a rocker. After four washes of 15 min in PBST on a shaker, blots were visualized using SuperSignal West Pico Chemiluminescent Substrate (Pierce 34080) or SuperSignal West Dura Extended Duration Substrate (Thermo 34075) and exposed on Scientific Imaging Film (Kodak 864 6770).
Compound bioactivity was tested in the rat embryonic striatal cell lines ST14A, which stably express either a mutant expanded repeat (128Q) or wild type (26Q) 546 amino acid huntingtin (HTT) fragment (a generous gift of E. Cattaneo) (Ehrlich et al., 2001) ST14A cells were propagated at 33° C. in the presence of serum. To induce neuronal differentiation, cells were serum deprived and cultured at 37° C. in the presence of N2 supplement. Cells were treated with compounds concurrently with induction of neuronal differentiation for 24 hours, as described (Quinti et al., 2010).
The NRF2 activation properties of further MIND4 structural analogs with variable potencies of SIRT2 inhibition were tested as described previously (see Table 1) Changes in expression of the canonical NRF2-responsive proteins NQO1 and GCLM, the transcription of which was induced by MIND4, was selected as a readout of pathway activation. Protein levels of NQO1 and GCLM were examined by immunoblotting in compound treated mutant HD and wild-type ST14A cells. […] This hypothesis was tested using a second panel of MIND4 analogs (see Table 3).

Assay [4] deals with NRF2/KEAP1 in MEFs. Kind of assay: NQO1 and NRF2 levels in mouse embryonic fibroblasts (MEFs), western blot. The following applies: wild-type MEFs, 5 hr exposure. Format: cell-based. As for the experimental part:
Mouse embryonic fibroblasts (MEFs) from wild-type (WT), NRF2-knockout (NRF2-KO) or KEAP1-knockout (KEAP1-KO) mice, were cultured in plastic dishes (Invitrogen) coated for 30 min with 0.1% (w/v) gelatin before use. The cell culture medium was Iscoves Modified Dulbecco's Medium (with L-glutamine) supplemented with human recombinant epidermal growth factor (10 ng/mL), 1× insulin/transferrin/selenium, and 10% (v/v) heat-inactivated FBS, all from Invitrogen. Cells were maintained at 5% CO2 in air at 37° C. For experiments, cells (250,000 per well) were grown for 24 hr on 6-well plates, and then treated with solvent control (0.1% DMSO, v/v) or compounds for either 5 hr or 24 hr. For western blot analysis, cells were washed twice with ice-cold phosphate buffered saline (PBS) and lysed in 150 μl of RIPA buffer (50 mM Tris-Cl pH 7.5, 150 mM NaCl, 0.5% sodium deoxycholate, 1% NP-40, 0.1% SDS and 1 mM EDTA), containing 1 protease inhibitor cocktail tablet (Roche) per 10 ml of buffer. Cell debris were removed by centrifugation at 16,300×g for […] at 4° C., and protein concentrations were determined by the BCA assay (Thermo). Proteins were resolved by SDS/PAGE, transferred to immobilon-P membranes, and probed with specific antibodies against NQO1 (1:1000) or NRF2 (1:1000). Equal loading was confirmed by probing the blots with an antibody against β-actin (mouse monoclonal, 1:10000), from Sigma, Dorset, United Kingdom.
For nuclear-cytoplasmic separation, WT MEFs (500,000 per dish) were grown for 24 hr on 6-cm plates, and then treated with solvent control (0.1% DMSO, v/v) or 0.5 μM MIND4-17. At the end of each treatment time, cells were placed on ice and washed twice with ice-cold PBS and subsequently lysed in buffer A [10 mM KCl, 5 mM MgCl2, 50 mM Tris-HCl (pH 7.5), 0.5% Nonidet P-40 (Roche), 1 mM dithioretitol (DTT) (Sigma), containing one protease inhibitor tablet and one phosphatase inhibitor tablet (both from Roche) per each 10 ml of buffer]. The lysates were subjected to centrifugation (Spectrafuge 24D, Labnet) at 1,000×g for 5 min at 4° C. The supernatant (cytoplasmic fraction) was transferred to a fresh Eppendorf tube. The pellet (nuclear fraction) was washed three times in buffer A before being dissolved in buffer B [2% SDS, 150 mM NaCl, 65 mM Tris-HCl (pH 8.0)] and sonicated for 30 sec. Finally, the lysates were subjected to western blot analysis. The blots were probed with antibodies against GAPDH (rabbit polyclonal, 1:5000) and Lamin A/C (rabbit polyclonal, 1:1000, Gene Tex, Calif., United States of America) to confirm fraction purity and equal protein loading.
For orientation: In western blotting, separated proteins are transferred to a membrane and probed.

The test system of assay [5] is α-tubulin K40 and histone H3 acetylation. Kind of assay: Acetylation of SIRT2 substrates in wild type primary cortical neurons. Format: cell-based, mouse. Set-up: α-Tubulin acetylation: dose or concentration left out as unconfirmed. The following applies: primary neurons. As for the experimental part:
as §1
Based upon the robust neuroprotection observed in HD model systems expressing both mutant HTT fragments and full-length mutant HTT, verification of the bioactivity of MIND4 as SIRT2 inhibitor in primary neurons was sought. […]

Sequence of human recombinant SIRT2 deacetylase (Q8IXJ6 whole entry): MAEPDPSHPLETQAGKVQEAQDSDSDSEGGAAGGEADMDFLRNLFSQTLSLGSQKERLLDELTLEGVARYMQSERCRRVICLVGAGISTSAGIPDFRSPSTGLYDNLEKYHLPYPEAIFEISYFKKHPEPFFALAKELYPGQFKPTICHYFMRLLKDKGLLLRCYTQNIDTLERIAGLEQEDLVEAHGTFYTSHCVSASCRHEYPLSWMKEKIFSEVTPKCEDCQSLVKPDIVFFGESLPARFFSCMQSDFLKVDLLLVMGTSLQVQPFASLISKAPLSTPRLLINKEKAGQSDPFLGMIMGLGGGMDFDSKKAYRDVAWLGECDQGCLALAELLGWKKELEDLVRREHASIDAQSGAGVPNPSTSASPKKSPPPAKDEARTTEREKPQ

By IC50 is commonly meant the concentration needed to halve the response being measured. Consider `Clc1ccc(-n2c(COc3cccc4ccccc34)nnc2SCc2ccccc2)cc1` [MIND4-2], for which, in assay [1] (Table 1), the IC50 turned out to be 12 µM.

Take `c1ccc(CSc2nnc(COc3cccc4ccccc34)n2-c2ccccc2)cc1` [MIND4-11]: the IC50 in assay [1] (Table 1) and in assay [1] (Table 3) was 4.5 µM each time. For the same molecule, the EC (2-fold NQO1 activity) in assay [2] was more than 10 µM.

`c1ccc(CSc2nnc(COc3cccc4cccnc34)n2-c2ccccc2)cc1` [MIND4-12]: in assay [1] (Table 1), the IC50 amounted to 9 µM.

Consider `O=[N+]([O-])c1ccc(Sc2nnc(COc3ccccc3)[nH]2)nc1` [MIND4-17-3], for which the 50% inhibitory concentration (IC50) in assay [1] (Table 3) was more than 50 µM. In addition, in assay [2], the EC (2-fold NQO1 activity) turned out to be 7.5 µM.

With `O=[N+]([O-])c1ccc(Sc2nnc(Cc3ccccc3)n2-c2ccccc2)nc1` [MIND4-17-15], the IC50 in assay [1] (Table 3) was more than 50 µM. In assay [2], the EC (2-fold NQO1 activity) came to 0.3 µM.

Regarding `O=[N+]([O-])c1ccc(Sc2nnc(-c3ccc(Cl)cc3)n2-c2ccccc2)nc1` [MIND4-17-33], in assay [1] (Table 3), the IC50 was 7.5 µM. In addition, in assay [2], the “Effect of GSH pre-incubation on NQO1 inducer potency” value (“Effect of GSH pre-incubation” for short) is “significantly affected by pre-incubation with GSH”, the “CD value (Concentration which Doubles the specific activity of NQO1)” value (“CD value” for short) is 0.3 µM and the EC (2-fold NQO1 activity) was 0.3 µM. Moreover, the “Induction of NRF2-responsive proteins NQO1 and GCLM” value (shortened to “Induction”) in assay [3] is “potent induction of NQO1 protein”.

For the molecule `O=[N+]([O-])c1cnc(Sc2nnc(-c3ccc(Cl)cc3)n2-c2ccccc2)c(Br)c1` [MIND4-17-56], in assay [1] (Table 3), the IC50 turned out to be 0.75 µM. In assay [2], the “Effect of GSH pre-incubation” value is given as “much more modest”, the “CD value” value stood at 2.5 µM and the EC (2-fold NQO1 activity) worked out at 2.5 µM. In addition, the “Induction” value in assay [3] is “lower potency in its ability to induce NQO1”.

For `c1ccc(CSc2nnc(COc3ccccc3)n2-c2ccccc2)cc1` [MIND4-19], in assay [1] (Table 1), the IC50 amounted to 7 µM.

`Brc1cccc(CSc2nnc(COc3ccccc3)n2-c2ccccc2)c1` [MIND4-20]: the IC50 in assay [1] (Table 1) is 5 µM.

As for `O=[N+]([O-])c1ccc(CSc2nnc(COc3ccccc3)n2-c2ccccc2)cc1` [MIND4-21], the IC50 in assay [1] (Table 1) and in assay [1] (Table 3) was 10 µM each time.

Turning to `c1ccc(CSc2nnc(COc3cccc4ccccc34)n2Cc2ccccc2)cc1` [MIND4-22], in assay [1] (Table 1), the 50% inhibitory concentration (IC50) worked out at 6 µM.

Turning to `COc1ccc(CSc2nnc(COc3cccc4ccccc34)n2Cc2ccccc2)cc1` [MIND4-23], the IC50 in assay [1] (Table 1) worked out at 9 µM.

Take `O=[N+]([O-])c1ccc(Sc2nnc(-c3ccccc3)n2-c2ccccc2)c2ncccc12` [MIND4A]: in assay [1] (Table 3), the IC50 was determined as 7.5 µM. For the same molecule, the SIRT2 inhibition entry in assay [1] (dose-response) is recorded as “lower potency of SIRT2 inhibition”. In assay [2], the “Effect of GSH pre-incubation” value is “much more modest”, the “CD value” value worked out at 1 µM and the EC (2-fold NQO1 activity) turned out to be 1 µM. Moreover, the “Induction” value in assay [3] is “higher potency induction”.

Regarding `Cn1cnnc1Sc1ccc([N+](=O)[O-])c2cccnc12` [MIND4B], the IC50 in assay [1] (Table 3) was more than 50 µM. The EC (2-fold NQO1 activity) in assay [2] is 2 µM.

Regarding `O=[N+]([O-])c1ccc(Sc2nnc(COc3ccccc3)n2-c2ccccc2)c2cccnc12` [MIND4C], in assay [1] (Table 3), the IC50 is more than 20 µM. Moreover, the EC (2-fold NQO1 activity) in assay [2] was found to be 5 µM. The “Induction” value in assay [3] is reported as “weaker activation”. The “Accumulation of total NRF2 protein” value in assay [4] is “to much lesser extent”.

As to `COC(=O)/C=C/C(=O)OC` [dimethyl fumarate, reference compound], in assay [2], the “CD value” value came to 9 µM. Moreover, in assay [3], the “Induction” value was “dose-dependent induction of NQO1 protein”.

For `C[S+]([O-])CCCCN=C=S` (stereo not drawn) [sulforaphane, reference compound], in assay [2], the “CD value” value came out at 0.18 µM. The “Accumulation of total NRF2 protein” value in assay [4] is “readily detectable”.

Turning to `O=C(CCCCCCC(=O)Nc1ccc([C@H]2O[C@@H](CSc3nc(-c4ccccc4)c(-c4ccccc4)o3)C[C@@H](c3ccc(CO)cc3)O2)cc1)NO` [tubacin, reference compound], the α-Tubulin acetylation result in assay [5] is recorded as “significantly increased α-tubulin acetylation”.
